ChEMBL document CHEMBL1148627, “Design and synthesis of heterocyclic malonyl-CoA decarboxylase inhibitors” (Bioorg Med Chem Lett, 2006)

The molecules below were run against T1, Malonyl-CoA decarboxylase, mitochondrial (Homo sapiens, UniProt O95822) (assay: Inhibitory activity against recombinant human MCD MBP fusion protein).
T1 sequence (O95822 whole entry): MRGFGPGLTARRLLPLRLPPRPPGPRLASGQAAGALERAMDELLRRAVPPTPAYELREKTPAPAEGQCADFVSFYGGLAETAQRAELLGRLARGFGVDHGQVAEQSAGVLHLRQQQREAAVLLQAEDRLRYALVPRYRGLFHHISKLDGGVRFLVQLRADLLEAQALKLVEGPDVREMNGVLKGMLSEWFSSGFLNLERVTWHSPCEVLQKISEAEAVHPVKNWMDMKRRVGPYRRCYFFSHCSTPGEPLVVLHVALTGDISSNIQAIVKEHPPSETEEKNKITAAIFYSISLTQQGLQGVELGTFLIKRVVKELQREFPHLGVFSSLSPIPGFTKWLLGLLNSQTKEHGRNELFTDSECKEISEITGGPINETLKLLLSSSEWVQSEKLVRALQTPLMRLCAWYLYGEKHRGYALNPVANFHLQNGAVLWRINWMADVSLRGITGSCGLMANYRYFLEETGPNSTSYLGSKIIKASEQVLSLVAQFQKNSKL

Row | SMILES | IC50
1 | CC(C)NC(=O)CCC1CN(Cc2cnc(C(C)C)n2-c2ccc(C(O)(C(F)(F)F)C(F)(F)F)cc2)CCO1 (stereo not drawn) | 1080 nM
2 | CCC(C)c1ncc(CO)n1-c1ccc(C(O)(C(F)(F)F)C(F)(F)F)cc1 (stereo not drawn) | 321 nM
3 | CCC(C)c1ncc(CNC(C)C)n1-c1ccc(C(O)(C(F)(F)F)C(F)(F)F)cc1 (stereo not drawn) | 341 nM
4 | CC(C)c1nc(C(F)(F)F)cn1-c1ccc(C(O)(C(F)(F)F)C(F)(F)F)cc1 | 567 nM
5 | CC(C)c1nc(CO)cn1-c1ccc(C(O)(C(F)(F)F)C(F)(F)F)cc1 | 243 nM
6 | CCCCNCc1cnc(C(C)C)n1-c1ccc(C(O)(C(F)(F)F)C(F)(F)F)cc1 | 482 nM
7 | OCc1cnc(-c2ccccn2)n1-c1ccc(C(O)(C(F)(F)F)C(F)(F)F)cc1 | 791 nM
8 | CCC(C)c1ncc(/C=C/C(=O)O)n1-c1ccc(C(O)(C(F)(F)F)C(F)(F)F)cc1 (stereo not drawn) | 523 nM
